Data set [1] has as its system virus (Vaccinia IHD, Encephalomyocarditis, Influenza Ao (PR8), Influenza A/Equine (Prague), Mengo, Semliki Forest). The class given is in vivo, mice. The conditions noted are these: prior art compound prepared and tested by applicants.
Data set [2] can be described thus: toxicity comparison of prior art compound with the compounds of the invention. The note with it: prior art compound prepared and tested by applicants. An excerpt: The closest prior art compound known to applicants is 1,5-bis[N-(4-diethylamino- 1-methylbutyl)sulfamoyl]-anthraquinone. The preparation of this compound is disclosed in I. Kh. Fel'dman, Z. Ovsyanaya, and E. Kozlov, Tr. Leningr. Khim.-Farmatsevt. Inst. 1960 (11), 48-53; CA 59: 11312.

The nature of another data set: hygroscopicity. The class given is physicochemical. The note with it: dihydrochloride salt. On the procedure:
Following the procedure of Example 1 and using anthraquinone-2,7-disulfonylchloride, the title compound was obtained. Since the dihydrochloride was hygroscopic, it was converted to the free base by stirring it in a 10% sodium carbonate solution and recrystallized from a mixture of ether and hexane, m.p. 93°-95°.

The next data set relates to Vaccinia IHD. The class given is in vivo, mice. The conditions noted are these: Vaccinia IHD 24 ID50, subcutaneous in tail; lesion scored on 7th day; subcutaneous treatment 28, 22, 4 hrs. pre- and 2, 20, 26 hrs. post-challenge; 2 to 50 mg. per kg.

Where a name gives a salt, the structure may show the parent alone.

This is an account of results in patent US3983248A (priority 1971, dated 1976).

Turning to `CCN(CC)CCCC(C)NS(=O)(=O)c1cccc2c1C(=O)c1cccc(S(=O)(=O)NC(C)CCCN(CC)CC)c1C2=O` (stereo not shown) [1,5-bis[N-(4-diethylamino-1-methylbutyl)sulfamoyl]-anthraquinone], in data set [1], the “activity in antiviral tests used with the compounds of this invention” value is “inactive”. Also, the “toxicity relative to the compounds of this invention” value in data set [2] was “very much more toxic than the compounds of this invention”. Consider `CCCCN(CCCC)CCCNS(=O)(=O)c1ccc2c(c1)C(=O)c1cc(S(=O)(=O)NCCCN(CCCC)CCCC)ccc1C2=O` [Example 3 dihydrochloride], for which, in “hygroscopicity”, the hygroscopicity entry is “hygroscopic”. Regarding `CCCCN(CCCC)CCCNS(=O)(=O)c1ccc2c(c1)C(=O)c1cc(S(=O)(=O)NCCCN(CCCC)CCCC)ccc1C2=O` [Example 6, 2,7-Bis-[N-(3-dibutylaminopropyl)sulfamoyl]-anthraquinone], in the data set with Vaccinia IHD, the “antiviral activity: lesions of treated animals compared to controls” value was “fewer lesions”.
